Assay [1] addresses Rho-associated protein kinase 2 (Homo sapiens, UniProt O75116). Kind of assay: Inhibition of ROCK2 (unknown origin) using STK2 as substrate measured after 4 hrs by HTRF assay.
For another assay, the species on record is Homo sapiens. Nature of the assay: Selectivity ratio of IC50 for ROCK1 (unknown origin) to IC50 for ROCK2 (unknown origin).
Assay [2] addresses Rho-associated protein kinase 1 (Homo sapiens, UniProt Q13464). Nature of the assay: Inhibition of ROCK1 (unknown origin) using STK2 as substrate measured after 4 hrs by HTRF assay.

In ChEMBL document CHEMBL4480429, “Discovery of (S)-6-methoxy-chroman-3-carboxylic acid (4-pyridin-4-yl-phenyl)-amide as potent and isoform selective ROCK2 inhibitors” (Bioorg Med Chem, 2019) one finds IC50 and Ratio IC50 data, which are given here for nine compounds.

By IC50 is commonly meant the midpoint of a concentration-inhibition curve. Lower therefore signals greater potency in that assay.

Molecules are shown by their SMILES.

Rho-associated protein kinase 1, sequence (Q13464 whole entry): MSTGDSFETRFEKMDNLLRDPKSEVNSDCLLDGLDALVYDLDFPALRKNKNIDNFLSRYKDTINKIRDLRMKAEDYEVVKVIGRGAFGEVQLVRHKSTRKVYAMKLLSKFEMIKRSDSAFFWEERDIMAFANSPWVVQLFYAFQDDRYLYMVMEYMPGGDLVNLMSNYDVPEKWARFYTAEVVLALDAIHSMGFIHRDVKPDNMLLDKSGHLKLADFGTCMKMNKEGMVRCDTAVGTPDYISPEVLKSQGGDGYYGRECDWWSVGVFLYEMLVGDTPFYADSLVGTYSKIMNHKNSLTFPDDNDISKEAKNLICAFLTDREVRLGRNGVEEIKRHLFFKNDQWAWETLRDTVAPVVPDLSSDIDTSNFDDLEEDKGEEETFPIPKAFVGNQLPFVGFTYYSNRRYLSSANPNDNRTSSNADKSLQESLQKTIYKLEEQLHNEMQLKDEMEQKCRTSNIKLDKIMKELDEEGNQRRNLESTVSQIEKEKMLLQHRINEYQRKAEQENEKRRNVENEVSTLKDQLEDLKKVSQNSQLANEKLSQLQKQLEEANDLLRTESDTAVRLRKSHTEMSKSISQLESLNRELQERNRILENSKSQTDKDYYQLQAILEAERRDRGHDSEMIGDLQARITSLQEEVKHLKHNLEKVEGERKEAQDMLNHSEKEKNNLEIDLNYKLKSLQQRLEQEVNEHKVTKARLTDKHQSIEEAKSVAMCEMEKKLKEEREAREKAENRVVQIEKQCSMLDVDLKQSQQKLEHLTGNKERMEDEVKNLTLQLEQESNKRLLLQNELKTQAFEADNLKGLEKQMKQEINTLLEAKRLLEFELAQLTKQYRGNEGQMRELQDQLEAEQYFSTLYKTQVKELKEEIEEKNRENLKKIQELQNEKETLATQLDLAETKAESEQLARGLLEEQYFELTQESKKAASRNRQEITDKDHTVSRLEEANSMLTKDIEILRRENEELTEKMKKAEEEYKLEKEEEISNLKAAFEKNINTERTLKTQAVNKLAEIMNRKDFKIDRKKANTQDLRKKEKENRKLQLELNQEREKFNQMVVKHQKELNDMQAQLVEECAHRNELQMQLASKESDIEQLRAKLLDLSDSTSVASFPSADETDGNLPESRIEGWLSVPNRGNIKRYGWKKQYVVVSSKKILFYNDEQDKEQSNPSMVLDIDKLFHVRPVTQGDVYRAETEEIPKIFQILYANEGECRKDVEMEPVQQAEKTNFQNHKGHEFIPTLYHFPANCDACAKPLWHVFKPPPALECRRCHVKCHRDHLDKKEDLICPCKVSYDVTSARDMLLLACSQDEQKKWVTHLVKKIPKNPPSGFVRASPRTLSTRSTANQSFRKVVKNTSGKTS
Rho-associated protein kinase 2, sequence (O75116 whole entry): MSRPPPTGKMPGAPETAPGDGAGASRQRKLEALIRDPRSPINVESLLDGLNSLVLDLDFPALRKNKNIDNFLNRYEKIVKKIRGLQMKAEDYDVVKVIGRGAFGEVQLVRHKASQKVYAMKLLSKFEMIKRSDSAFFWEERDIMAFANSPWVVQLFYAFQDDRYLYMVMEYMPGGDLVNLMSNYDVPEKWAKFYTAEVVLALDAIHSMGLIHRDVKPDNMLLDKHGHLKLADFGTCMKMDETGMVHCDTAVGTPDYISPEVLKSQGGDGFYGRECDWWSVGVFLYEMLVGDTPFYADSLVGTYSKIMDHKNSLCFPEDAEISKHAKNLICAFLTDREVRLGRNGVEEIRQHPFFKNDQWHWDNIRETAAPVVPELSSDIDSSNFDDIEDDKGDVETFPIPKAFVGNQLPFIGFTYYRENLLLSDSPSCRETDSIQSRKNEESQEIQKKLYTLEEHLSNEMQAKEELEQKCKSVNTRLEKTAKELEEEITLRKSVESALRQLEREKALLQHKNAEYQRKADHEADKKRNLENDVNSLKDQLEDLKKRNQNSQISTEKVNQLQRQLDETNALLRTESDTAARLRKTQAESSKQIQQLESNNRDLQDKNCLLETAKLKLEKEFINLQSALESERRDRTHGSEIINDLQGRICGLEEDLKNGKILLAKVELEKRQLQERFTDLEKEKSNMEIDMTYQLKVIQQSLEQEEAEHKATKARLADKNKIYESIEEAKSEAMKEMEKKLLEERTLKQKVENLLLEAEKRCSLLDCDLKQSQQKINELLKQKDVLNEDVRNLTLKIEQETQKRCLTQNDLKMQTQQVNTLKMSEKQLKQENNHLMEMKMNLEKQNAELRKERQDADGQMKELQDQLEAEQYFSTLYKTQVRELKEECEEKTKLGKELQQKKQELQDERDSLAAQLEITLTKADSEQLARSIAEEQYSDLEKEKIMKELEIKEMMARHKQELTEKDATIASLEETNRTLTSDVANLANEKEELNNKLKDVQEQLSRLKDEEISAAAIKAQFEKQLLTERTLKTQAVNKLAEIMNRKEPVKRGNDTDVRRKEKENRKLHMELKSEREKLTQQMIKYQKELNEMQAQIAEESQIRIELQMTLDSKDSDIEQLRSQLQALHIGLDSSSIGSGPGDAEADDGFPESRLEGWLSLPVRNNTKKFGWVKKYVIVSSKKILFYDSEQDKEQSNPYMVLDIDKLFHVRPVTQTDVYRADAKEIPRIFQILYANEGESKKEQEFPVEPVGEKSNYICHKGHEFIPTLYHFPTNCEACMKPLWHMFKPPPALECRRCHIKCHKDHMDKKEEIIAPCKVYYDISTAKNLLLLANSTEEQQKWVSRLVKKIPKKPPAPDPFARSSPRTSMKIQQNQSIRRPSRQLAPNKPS

In the case of `COc1ccc2c(c1)C[C@H](C(=O)Nc1ccc(-c3ccncc3)cc1OCCN(C)C)CO2`, the figures for the half-maximal inhibitory concentration (IC50) in assay [1] and in assay [2] were 3 nM and 68 nM, respectively. For the same compound, the Ratio IC50 in the assay listed under Homo sapiens is 22.7.
For `Cc1ccc2c(c1)CC(C(=O)Nc1ccc(-c3ccncc3)cc1OCCN(C)C)CO2` (stereo not given), in that order: 24 nM, 169 nM and 7.
The corresponding values for `COc1ccc2c(c1)C[C@@H](C(=O)Nc1ccc(-c3ccncc3)cc1OCCN(C)C)CO2` are 172 nM, 523 nM and 3.
`COc1ccc2c(c1)CC(C(=O)Nc1ccc(-c3cn[nH]c3)cc1OCCN(C)C)CO2` (stereo not given) returned an IC50 in assay [2] of 3.4 nM.
As for `CN(C)CCOc1cc(-c2ccncc2)ccc1NC(=O)C1COc2ccccc2C1` (stereo not given), the IC50 in assay [1] is 7 nM; in assay [2], 30 nM. Also, in the assay listed under Homo sapiens, the Ratio IC50 is 4.3.
With `CN(C)CCOc1cc(-c2ccncc2)ccc1NC(=O)C1COc2ccc(Cl)cc2C1` (stereo not given), the IC50 in assay [1] came out at 22 nM; in assay [2], 135 nM. The Ratio IC50 in the assay listed under Homo sapiens is 6.1.
For `COc1ccc2c(c1)CC(C(=O)Nc1ccc(-c3ccncc3)cc1OCCN(C)C)CO2` (stereo not given), in that order: 9 nM, 170 nM and 18.9.
In the case of `COc1ccc2c(c1)CC(C(=O)Nc1ccc(-c3c[nH]nc3C)cc1OCCN(C)C)CO2` (stereo not given), the half-inhibitory concentration (IC50) is 1.2 nM in assay [1] and 16.3 nM in assay [2]. In the assay filed under Homo sapiens, the Ratio IC50 is 13.6.
The corresponding values for `CN(C)CCOc1cc(-c2ccncc2)ccc1NC(=O)C1COc2ccc(F)cc2C1` (stereo not given) are 7 nM, 104 nM and 14.8.
